Experimental data from paper PMC6994103 (PLoS Neglected Tropical Diseases, 2020).

Key:
[1] = system: proline transporter TcAAAP069; test: Proline transport assay in wild type (TcWT) epimastigotes; assay type: cell-based, Trypanosoma cruzi; settings: for proline transport inhibition at 25 μM and 100 μM: TcWT epimastigotes, preliminary
Description: (§1) Aliquots of epimastigote cultures (10^7 parasites) were centrifuged at 8,000 xg for 30 s, and washed once with PBS. […] Following incubation at 28°C, reaction was stopped by adding 1 mL of ice-cold PBS. Cells were centrifuged as indicated above, and washed twice with ice-cold PBS. Cell pellets were resuspended in 0.2 mL of water and counted for radioactivity in UltimaGold XR liquid scintillation cocktail (Packard Instrument Co., Meridien CT, USA). Cell viability was assessed by direct microscopic examination and viability assays by using “Cell Titer 96 Aqueous One Solution Cell Proliferation Assay (MTS)” (Promega, Madison, WI, USA) according to the manufacturer instructions. […] Non-specific uptake and carry over were assayed without incubation (T0), or incubated at 4°C. […] As a control, regular PBS buffer was used.

[2] = system: VERO cells; test: Toxicity assay in VERO cells (gentian violet staining); assay type: cell-based, African green monkey; settings: IC50 in VERO cells / IC50 in trypomastigotes (Y strain)
Description: VERO cells (African green monkey Kidney, ATCC CCL-81) were cultured in MEM medium supplemented with 10% heat inactivated FCS, 0.15% (w/v) NaHCO3, 100 U/mL penicillin and 100 U/mL streptomycin at 37°C in 5% CO2.
The toxicity of the compounds was determined in VERO cells by the gentian violet staining assay. Briefly, the cells (1 x10^4 cells/well) were incubated in 96-well plates with the indicated compound or dimethyl sulfoxide (DMSO) as negative control and maintained at 37° C for 24 h. Then the cells were fixed for 15 min, and stained with 0.5% gentian violet. The absorbance was measured at 570 nm. The selectivity index (SI) was calculated for each CV analogue as the ratio between the IC50 obtained in mammalian cells and the IC50 in trypomastigotes. For the combined treatment, the results were presented as percentage of untreated cells.

[3] = system: T. cruzi epimastigotes Dm28c strain; test: Trypanocidal activity in epimastigotes, Dm28c strain; assay type: cell-based, Trypanosoma cruzi; settings: Dm28c vs Y
Description: (§2) VERO cells (5 x10^4 per well) were infected with trypomastigotes (2.5 ×10^5 per well) for 4 h. After this period, the infected cells were washed twice with phosphate-buffered saline (PBS), the MEM medium was replaced, and the cells were kept in culture at 37°C, 5% CO2. In order to obtain intracellular amastigotes, the cells were lysed 4 days after infection using a cell scraper, collected, washed twice with PBS (or MEM) and counted using a hemocytometer. Trypomastigotes were obtained from infected VERO cells as previously described.
(§3) Epimastigotes of T. cruzi were cultured as described above, in 24-wells plate at a start density of 0.5 x10^7 cells/mL in BHT medium. Parasites´ growth was evaluated at different concentrations of BZL, CV and CV structural analogues, and parasite proliferation was determined after 48 h. Trypanocidal activity in trypomastigotes and amastigotes was performed using 1 x10^6 cells/mL in 96-well plates and incubating at 37°C for 24 h in the presence of the corresponding drug. Growth was determined by counting in a Neubauer chamber and viability assays by using “Cell Titer 96 Aqueous One Solution Cell Proliferation Assay (MTS)” (Promega, Madison, WI, USA) according to the manufacturer’s instructions. Amastigotes were fixed with methanol, stained and mounted with Vectashield with DAPI (Vector Laboratories, Burlingame, CA, USA), and then the non-lysed cells were counted by using fluorescence microscopy.

[4] = system: T. cruzi Tc069 epimastigotes Y strain; test: Trypanocidal activity in TcAAAP069 overexpressing (Tc069) epimastigotes; assay type: cell-based, Trypanosoma cruzi; settings: Tc069 vs TcWT
Description: as §3

[5] = system: proline transporter TcAAAP069; test: Proline transport assay in TcAAAP069 overexpressing (Tc069) epimastigotes; assay type: cell-based, Trypanosoma cruzi; settings: Tc069 vs TcWT
Description: as §1

[6] = system: T. cruzi epimastigotes CL Brener strain; test: Trypanocidal activity in epimastigotes, CL Brener strain; assay type: cell-based, Trypanosoma cruzi; settings: CL Brener vs Y
Description: as §2
Epimastigotes of T. cruzi were cultured as described above, in 24-wells plate at a start density of 0.5 x10^7 cells/mL in BHT medium. Parasites´ growth was evaluated at different concentrations of BZL, CV and CV structural analogues, and parasite proliferation was determined after 48 h. […] Growth was determined by counting in a Neubauer chamber and viability assays by using “Cell Titer 96 Aqueous One Solution Cell Proliferation Assay (MTS)” (Promega, Madison, WI, USA) according to the manufacturer’s instructions. Amastigotes were fixed with methanol, stained and mounted with Vectashield with DAPI (Vector Laboratories, Burlingame, CA, USA), and then the non-lysed cells were counted by using fluorescence microscopy.

In the case of `Cc1cc2c(s1)Nc1ccccc1N=C2N1CCN(C)CC1` [Olanzapine], the “proline transport inhibition at 25 μM and 100 μM” value [1] is reported as “only inhibited proline transport at 100 μM” and the “concentration producing death of parasites in the lapse time of the transport assay” value ([1]; epimastigotes) is reported as “over 300 μM”.
In the case of `Nc1ccc(S(=O)(=O)c2ccc(N)cc2)cc1` [Dapsone], the “proline transport inhibition at 25 μM and 100 μM” value [1] is reported as “did not inhibit the proline transport in any concentration assayed”.
With `CC(C)/N=c1\cc2n(-c3ccc(Cl)cc3)c3ccccc3nc-2cc1Nc1ccc(Cl)cc1` [Clofazimine] the “Selectivity Index” value [2] was 36.1.
`CN(C)c1ccc(C(=C2C=CC(=[N+](C)C)C=C2)c2ccc(N(C)C)cc2)cc1` [Crystal Violet] was tested, and the “effect on pH dependency of proline transport” value ([1]; CV 10 μM, citrate buffer pH 5.0-6.5) was “did not alter the pH dependency”, the “proline transport inhibition in the absence of Na+ or K+ cations” value ([1]; CV 10 μM, modified PBS vs regular PBS) was “No differences were observed” and the “mechanism of inhibition of proline transport” value ([1]; TcWT, listed as CV) was “reversible competitive mechanism of inhibition”. The “fold lower IC50 in Dm28c than in Y epimastigotes” value [3] was 31.8 fold, the “fold reduction of trypanocidal IC50 in Tc069 vs wild type” value [4] was 47 fold and the “fold increase of proline transport IC50 in Tc069 vs control parasites” value [5] was 2.5 fold. The “fold lower IC50 in CL Brener than in Y epimastigotes” value [6] was 4.0 fold.
